From patent US20240197744A1, “TREATING SEX STEROID DEPENDENT CANCER WITH BMX INHIBITORS” (The Cleveland Clinic Foundation, priority 2021, published 2024)

What was measured:
[1] = system: VCaP xenografts; assay: VCaP xenograft in eugonadal mice; format: in vivo; settings: VCaP xenograft tumors
Protocol: (§1) Total RNA was extracted with GenElute Mammalian Total RNA miniprep kit (Sigma-Aldrich), and 1 μg RNA was reverse-transcribed to complementary DNA (cDNA) with the iScript cDNA Synthesis Kit (Bio-Rad). An ABI 7500 Real-Time PCR instrument (Applied Biosystems) was used to perform quantitative PCR (qPCR) analysis, using iTaq Fast SYBR Green Supermix with ROX (Bio-Rad) in 96-well plates at a final reaction volume of 10 μl. The qPCR analysis was carried out in triplicate with the following primer sets:
(§2) All mouse studies were performed under a protocol approved by the Institutional Animal Care and Use Committee of the Cleveland Clinic Lerner Research Institute. […]
(§3) To evaluate whether zanubrutinib suppresses tumor growth, 6 million C4-2 or 10 million VCaP cells (100 μl in 50% Matrigel and 50% growth media) were subcutaneously injected into mice. […] Tumor volume and progression-free survival were determined as described above. […] The number of mice in each group was determined by those that survived surgical procedures and had reached the 200 mm^3 tumor volume required to initiate treatment. Tumor diameters were measured by digital calipers three times per week and fresh frozen upon mouse sacrifice.
(§4) Androgens in xenografts were assessed by liquid chromatography tandem mass spectrometry as reported previously with slight modifications (Li et al., 2021; Zhu et al., 2018). […]

[2] = system: C4-2 xenografts; assay: C4-2 xenograft in eugonadal mice; format: in vivo; settings: C4-2 xenograft tumors
Protocol: as §1, §2, §3, §4

C=CC(=O)N1CCC([C@@H]2CCNc3c(C(N)=O)c(-c4ccc(Oc5ccccc5)cc4)nn32)CC1 [zanubrutinib, Zanubrutinib]
no significant effect: tumor testosterone by mass spectrometry [1] | AR target gene expression ([1]; qPCR) | tumor testosterone by mass spectrometry [2] | AR target gene expression ([2]; qPCR)
